# Patent US7781613B2, “Substituted N-aminomethylene sulfonamides, production and use thereof as medicaments” (Sanofi-Aventis, priority 2005, dated 2010)
# How the values were obtained:
# [1] = molecular target: T1, hormone-sensitive lipase (HSL) (Rattus norvegicus, UniProt P15304); experiment: HSL enzyme assay (NAG assay) with partially purified HSL; format: biochemical; conditions: inhibition of HSL enzymatic activity; partially purified HSL from rat fat cells; NAG substrate; 30° C., 60 min
# T1 construct: Isolated rat fat cells are obtained from epididymal adipose tissue from untreated male rats; from tissue; host or cells: rat (Wistar) epididymal adipose tissue, isolated fat cells
# T1 sequence (P15304 1-768 isoform P15304-2): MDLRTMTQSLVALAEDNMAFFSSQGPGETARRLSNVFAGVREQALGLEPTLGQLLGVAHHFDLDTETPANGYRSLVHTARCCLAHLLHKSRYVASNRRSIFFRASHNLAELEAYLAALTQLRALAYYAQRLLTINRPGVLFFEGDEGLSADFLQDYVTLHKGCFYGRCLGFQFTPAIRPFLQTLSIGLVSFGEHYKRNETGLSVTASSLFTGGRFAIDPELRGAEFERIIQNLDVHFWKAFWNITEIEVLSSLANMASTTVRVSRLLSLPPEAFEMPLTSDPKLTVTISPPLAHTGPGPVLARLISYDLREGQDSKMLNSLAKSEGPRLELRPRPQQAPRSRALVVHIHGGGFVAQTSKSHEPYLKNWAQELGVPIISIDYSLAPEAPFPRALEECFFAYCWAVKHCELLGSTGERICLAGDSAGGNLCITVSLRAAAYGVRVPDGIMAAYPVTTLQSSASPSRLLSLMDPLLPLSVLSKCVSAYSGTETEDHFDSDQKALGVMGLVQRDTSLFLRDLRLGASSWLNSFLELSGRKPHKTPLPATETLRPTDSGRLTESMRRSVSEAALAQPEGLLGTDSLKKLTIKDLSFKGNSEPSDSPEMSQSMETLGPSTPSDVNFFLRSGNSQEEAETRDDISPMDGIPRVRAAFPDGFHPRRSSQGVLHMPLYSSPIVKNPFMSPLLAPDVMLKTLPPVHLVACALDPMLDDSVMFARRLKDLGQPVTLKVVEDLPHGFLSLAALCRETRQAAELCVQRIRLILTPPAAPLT
# Procedure: The effect of the compounds of the invention of the formula I is tested in the following enzyme assay system: […]
# Preparation of the Partially Purified HSL:
# Isolated rat fat cells are obtained from epididymal adipose tissue from untreated male rats (Wistar, 220-250 g) by collagenase treatment in accordance with published methods (e.g. S, Nilsson et al., Anal. Biochem. 158, 1986, 399-407; G. Fredrikson et al., J. Biol. Chem. 256, 1981, 6311-6320; H. Tornquist et al., J. Biol. Chem. 251, 1976, 813-819). The fat cells from 10 rats are washed three times by flotation with 50 ml of homogenization buffer ([…] Tris/HCl, pH 7.4, 0.25 M sucrose, 1 mM EDTA, 1 mM DTT, 10 μg/ml leupeptin, 10 μg/ml antipain, 20 μg/ml pepstatin) each time and finally taken up in 10 ml of homogenization buffer. The fat cells are homogenized in a Teflon-in-glass homogenizer (Braun-Melsungen) by 10 strokes at 1500 rpm and 15° C. The homogenate is centrifuged (Sorvall SM24 tubes, 5000 rpm, 10 min, 4° C.). The subnatant between the layer of fat at the top and the pellet is removed and the centrifugation is repeated. The subnatant resulting therefrom is centrifuged again (Sorvall SM24 tubes, 20 000 rpm, 45 min, 4° C.). […] After incubation at 4° C. for 60 min (shaking at intervals of 15 min), the mixture is centrifuged (Sorvall SM24 tubes, 3000 rpm, 10 min, 4° C.). The supernatant is adjusted to pH 5.2 by adding glacial acetic acid and is incubated at 4° C. for 30 min. The precipitates are collected by centrifugation (Sorvall SS34, 12 000 rpm, 10 min, 4° C.) and suspended in 2.5 ml of 20 mM Tris/HCl, pH 7.0, 1 mM EDTA, 65 mM NaCl, 13% sucrose, 1 mM DTT, 10 μg/ml leupeptin/pepstatin/antipain. The suspension is dialyzed against 25 mM Tris/HCl, pH 7.4, 50% glycerol, 1 mM DTT, 10 μg/ml leupeptin, pepstatin, antipain at 4° C. overnight and then loaded onto a hydroxiapatite column (0.1 g per 1 ml of suspension, equilibrated with 10 mM potassium phosphate, pH 7.0, 30% glycerol, 1 mM DTT). The column is washed with four volumes of equilibration buffer at a flow rate of 20 to 30 ml/h. The HSL is eluted with one volume of equilibration buffer containing 0.5 M potassium phosphate and then dialyzed (see above) and concentrated 5- to 10-fold by ultrafiltration (Amicon Diaflo PM 10 Filter) at 4° C. The partially purified HSL can be stored at −70° C. for 4 to 6 weeks.
# Preparation of NAG (NBD Monoacyl Glyceride) Substrate:
# 6 mg of phosphatidylcholine and 6 mg of phosphatidylinositol are each dissolved in 1 ml of chloroform. 10 mg of NAG are dissolved in 1 ml of chloroform. Two parts of phosphatidylinositol solution (e.g. 83.5 μl) and one part of phosphatidylcholine solution (e.g. 41.5 μl) and 100 μl of NAG solution are pipetted together into plastic scintillation vessels (final concentration in the assay: 0.0375 mg of phospholipid/ml; 0.05 mg/NAG/ml). The chloroform (225 μl total volume) is completely removed by passing a stream of N2 over it. The dried substrate can be stored at 4° C. for up to 3 days. To prepare the phospholipid vesicles/micelles with intercalated NAG (on the day of the assay), the dried substrate is taken up in 20 ml of assay buffer (25 mM Tris/HCl, pH 7.4; 150 mM NaCl) and two ultrasound treatments carried out with an ultrasonic probe (Branson Sonifier Type II, standard microtip): 1st treatment setting 2, 2×1 min, in between 1 min on ice each time; 2nd treatment setting 4, 2×1 min, in between 1 min on ice each time. During this procedure, the color of the substrate solution changes from yellow (extinction maximum 481 nm) to red (extinction maximum 550 nm) owing to intercalation of NAG between the phospholipid molecules in the vesicles/micelles. Before use as substrate (within the next 2 h), the solution is incubated on ice for 15 min.
# The assay is carried out in 1.5 ml Eppendorf vessels or 96-well plates at 30° C. for 60 min. […]
Compound,melting point,IC50 [1] [nM]
"COc1ccc(S(=O)(=O)N=CN(C)C)cc1CN1CC(C)CC(C)C1 (stereo not shown) [Example 8, N-Dimethylaminomethylene-4-methoxy-3-[(3,5-dimethylpiperidino)methyl]benzenesulfonamide]",89 °C,
"CC1CC(NC(=O)c2ccc(Cl)c(S(=O)(=O)N=CN(C)C)c2)CC(C)(C)C1 (stereo not shown) [Example 10, 4-Chloro-3-(dimethylaminomethylenesulfamoyl)-N-(3,3,5-trimethylcyclohexyl)benzamide]",180 °C,
"CN(C)C=NS(=O)(=O)c1cc(C(=O)NC2CC(C)(C)NC(C)(C)C2)ccc1Cl [Example 11, 4-Chloro-3-(dimethylaminomethylenesulfamoyl)-N-(2,2,6,6-tetramethylpiperidin-4-yl)-benzamide]",192 °C,
"Cc1cc(C)cc(NC(=O)c2ccc(Cl)c(S(=O)(=O)N=CN(C)C)c2)c1 [Example 12, 4-Chloro-3-(dimethylaminomethylenesulfamoyl)-N-(3,5-dimethylphenyl)benzamide]",216 °C,
"CN(C)C=NS(=O)(=O)c1cc(C(=O)NCc2ccccc2Cl)ccc1Cl [Example 16, 4-Chloro-3-(dimethylaminomethylenesulfamoyl)-N-(2-chlorophenylmethyl)benzamide]",167 °C,
"Cc1cc(C)cc(OCc2ccc(Cl)c(S(=O)(=O)N=CN(C)C)c2)c1 [Example 19, 6-Chloro-N-dimethylaminomethylene-3-[(3,5-dimethylphenoxy)methyl]benzenesulfonamide]",137 °C,400
"CC1CC(N(Cc2ccc(Cl)c(S(=O)(=O)N=CN(C)C)c2)S(C)(=O)=O)CC(C)(C)C1 (stereo not shown) [Example 21, 6-Chloro-N-dimethylaminomethylene-3-[(N-(3,3,5-trimethylcyclohexyl)-N-methylsulfonylamino)methyl]benzenesulfonamide]",,500
"CC1CC(NS(=O)(=O)c2ccc(Cl)c(S(=O)(=O)N=CN(C)C)c2)CC(C)(C)C1 (stereo not shown) [Example 23, 6-Chloro-N-dimethylaminomethylene-3-(3,3,5-trimethylcyclohexylaminosulfonyl]benzenesulfonamide]",,150
"CN(C)C=NS(=O)(=O)c1cc(S(=O)(=O)N2CCCC(C)(C)C2)ccc1Cl [Example 24, 6-Chloro-N-dimethylaminomethylene-3-(3,3-dimethylpiperidinosulfonyl]-benzenesulfonamide]",123 °C,
"CC1CC(NS(=O)(=O)c2cc(S(=O)(=O)N=CN(C)C)c(C(F)(F)F)cc2N)CC(C)(C)C1 (stereo not shown) [Example 26, 2-Amino-4-trifluoromethyl-5-dimethylaminomethylenesulfamoyl-N-(3,3,5-trimethyl-cyclohexyl)benzenesulfonamide]",> 165 °C (dec.),
"CCCCN(CCCC)S(=O)(=O)c1cc(S(=O)(=O)N=CN(C)C)c(Cl)cc1N [Example 28, 2-Amino-4-chloro-5-dimethylaminomethylenesulfamoyl-N-dibutylbenzenesulfonamide]",,30
"CC(C)CN(CC(C)C)S(=O)(=O)c1cc(S(=O)(=O)N=CN(C)C)c(Cl)cc1N [Example 29, 2-Amino-4-chloro-5-dimethylaminomethylenesulfamoyl-N-diisobutylbenzenesulfonamide]",126 °C,700
CC1CC(NS(=O)(=O)c2cc(S(=O)(=O)N=CN(C)C)c(Cl)cc2N)CC(C)(C)C1 (stereo not shown) [Example 32],100 °C,1
"C=CCN(C1CCCCC1)S(=O)(=O)c1cc(S(=O)(=O)N=CN(C)C)c(Cl)cc1N [Example 33, 2-Amino-4-chloro-5-dimethylaminomethylenesulfamoyl-N-cyclohexyl-N-allyl-benzenesulfonamide]",90 °C,200
"CC(C)N(C1CCCCC1)S(=O)(=O)c1cc(S(=O)(=O)N=CN(C)C)c(Cl)cc1N [Example 34, 2-Amino-4-chloro-5-dimethylaminomethylenesulfamoyl-N-cyclohexyl-N-isopropyl-benzenesulfonamide]",122 °C (dec.),
"CCCCCCCCNS(=O)(=O)c1cc(S(=O)(=O)N=CN(C)C)c(Cl)cc1N [Example 38, 2-Amino-4-chloro-5-dimethylaminomethylenesulfamoyl-N-octylbenzenesulfonamide]",110 °C,
"CN(C)C=NS(=O)(=O)c1cc(S(=O)(=O)NC2CCCCC2)c(N)cc1C(F)(F)F [Example 48, 2-Amino-4-trifluoromethyl-5-dimethylaminomethylenesulfamoyl-N-cyclohexyl-benzenesulfonamide]",> 185 °C (dec.),700
